Reference: patent publication US9657006B2, “Macrocyclic factor VIIa inhibitors” (BRISTOL-MYERS SQUIBB COMPANY, priority 2013, dated 2017)
Structures can show the parent of a compound that is named as a salt. Where two headings read alike, the source gives them in different places.

What was measured:
[1] = amide bond
[2] = target: T1, FVIIa (Homo sapiens, UniProt P08709); assay: FVIIa Ki (25° C.): FVIIa peptide substrate assay; assay type: biochemical; conditions: S2288 peptide substrate, full-length human TF
T1 construct: with about 1% of the total amount in the proteolytically active form factor VIIa
Description: The effectiveness of compounds of the present invention as inhibitors of the coagulation Factors, VIIa, IXa, Xa, XIa, XIIa, plasma kallikrein or thrombin, tissue kallikrein and activated protein C, can be determined using a relevant purified serine protease, respectively, and an appropriate synthetic substrate. The rate of hydrolysis of the chromogenic or fluorogenic substrate by the relevant serine protease was measured both in the absence and presence of compounds of the present invention. […] A decrease in the rate of absorbance or fluorescence change in the presence of inhibitor is indicative of enzyme inhibition. Such methods are known to one skilled in the art. The results of this assay are expressed as the inhibitory constant, Ki.
a. FVIIa Ki (25° C.): FVIIa Peptide Substrate Assay
S2288 (range of concentrations) and FVIIa inhibitor were incubated for 15 minutes (min) at 25° C. Reactions were initiated by addition of a solution of full-length human TF (6 nM), FVIIa (0.75 nM), and PCPS (25 μM). FVIIa hydrolyses S2288, which was monitored for up to 60 min at 405 nm. Steady-state reaction velocity data (vs) was globally fit to Equation 1 for competitive inhibition. vs=Vmax[S]/([S]+Km(1+[I]/Ki)) (Eq. 1) where Vmax is maximum velocity, [S] is substrate concentration, Km is the Michaelis-Menten constant, [I] is the inhibitor concentration, and Ki is the inhibitor dissociation constant (GraFit, version 5, Erithacus Software Ltd, West Sussex, UK).

T1 sequence (P08709 213-466 limits assumed): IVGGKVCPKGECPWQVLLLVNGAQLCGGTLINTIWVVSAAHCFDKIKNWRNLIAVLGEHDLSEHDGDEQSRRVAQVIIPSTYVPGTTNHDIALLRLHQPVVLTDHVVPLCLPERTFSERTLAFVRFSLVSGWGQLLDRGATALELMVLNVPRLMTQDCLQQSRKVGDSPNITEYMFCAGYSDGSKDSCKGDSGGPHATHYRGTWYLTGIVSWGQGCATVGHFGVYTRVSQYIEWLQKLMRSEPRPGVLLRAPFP
T1 sequence (P08709 61-212 limits assumed): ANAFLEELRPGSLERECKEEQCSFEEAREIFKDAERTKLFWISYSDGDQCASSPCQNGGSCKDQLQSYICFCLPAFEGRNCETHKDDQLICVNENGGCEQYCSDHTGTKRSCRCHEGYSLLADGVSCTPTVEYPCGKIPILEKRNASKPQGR
T1 sequence (P13726 33-295 partner): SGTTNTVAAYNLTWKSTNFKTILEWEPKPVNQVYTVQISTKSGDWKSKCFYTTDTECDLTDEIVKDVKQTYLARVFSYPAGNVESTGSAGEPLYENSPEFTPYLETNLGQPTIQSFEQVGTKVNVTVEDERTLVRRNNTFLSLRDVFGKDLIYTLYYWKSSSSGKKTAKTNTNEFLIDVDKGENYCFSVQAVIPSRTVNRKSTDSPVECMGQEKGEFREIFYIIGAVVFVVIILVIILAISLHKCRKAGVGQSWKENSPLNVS

Compound CCOC(=O)CC1NC(=O)[C@H](Nc2ccc(C#N)cc2)c2ccc(OCC(F)F)c(c2)CCC(=O)Nc2cccc1c2 (some centres unmarked) has a ring closure, isolated yield ([1]; 14-membered ring, HATU) of 21%.

Compound CN1Cc2cc(cc(F)c2OC(CF)CF)NC(=O)CCc2cc(ccc2OCC(F)F)C(Nc2ccc(C#N)cc2)C1=O (centres unmarked) has a ring closure, isolated yield ([1]; from CNCc1cc(NC(=O)CCc2cc(C(Nc3ccc(C#N)cc3)C(=O)O)ccc2OCC(F)F)cc(F)c1OC(CF)CF, 14-membered ring, BOP) of 44%.

CN1Cc2cc(cc(F)c2OC(F)F)NC(=O)CCc2cccc(c2)C(Nc2ccc(C#N)cc2)C1=O (centres unmarked) showed a ring closure, isolated yield ([1]; from CN(Cc1cc(N)cc(F)c1OC(F)F)C(=O)C(Nc1ccc(C#N)cc1)c1cccc(CCC(=O)O)c1, 14-membered ring, BOP/DMAP/DIPEA, DCM/DMF, 4.8 mM, 40.0 °C, 21.0 h) of 80%.

CN1Cc2cc(cc(F)c2OCC(F)F)NC(=O)CCc2cc(ccc2OCC(F)F)C(Nc2ccc(C#N)cc2)C1=O (centres unmarked) gave a ring closure, isolated yield ([1]; from CNCc1cc(NC(=O)CCc2cc(C(Nc3ccc(C#N)cc3)C(=O)O)ccc2OCC(F)F)cc(F)c1OCC(F)F, 14-membered ring, BOP) of 62%.

CN1Cc2cc(ccc2S(=O)(=O)C(F)(F)F)NC(=O)CCc2cc(ccc2OCC(F)F)C(Nc2ccc3c(N(C(=O)OC(C)(C)C)C(=O)OC(C)(C)C)ncc(F)c3c2)C1=O (centres unmarked) showed a ring closure, isolated yield ([1]; from CNCc1cc(NC(=O)CCc2cc(C(Nc3ccc4c(N(C(=O)OC(C)(C)C)C(=O)OC(C)(C)C)ncc(F)c4c3)C(=O)O)ccc2OCC(F)F)ccc1S(=O)(=O)C(F)(F)F, 14-membered ring, BOP) of 45%.

With CN1Cc2cc(ccc2S(=O)(=O)C2CC2)NC(=O)CCc2cc(ccc2C2CC2)C(Nc2ccc3c(N(C(=O)OC(C)(C)C)C(=O)OC(C)(C)C)ncc(F)c3c2)C1=O (centres unmarked) the ring closure, isolated yield ([1]; from CNCc1cc(NC(=O)CCc2cc(C(Nc3ccc4c(N(C(=O)OC(C)(C)C)C(=O)OC(C)(C)C)ncc(F)c4c3)C(=O)O)ccc2C2CC2)ccc1S(=O)(=O)C1CC1, 14-membered ring, BOP) was 82%.

For CN1Cc2cc(ccc2S(=O)(=O)C2CC2)NC(=O)CCc2cc(ccc2F)C(Nc2ccc3c(N(C(=O)OC(C)(C)C)C(=O)OC(C)(C)C)ncc(F)c3c2)C1=O (centres unmarked), the ring closure, isolated yield ([1]; from CNCc1cc(NC(=O)CCc2cc(C(Nc3ccc4c(N(C(=O)OC(C)(C)C)C(=O)OC(C)(C)C)ncc(F)c4c3)C(=O)O)ccc2F)ccc1S(=O)(=O)C1CC1, 14-membered ring, BOP/DMAP/DIPEA, DCM/DMF, 25.0 °C, 12.0 h) was 30%.

Work on CN1Cc2cc(ccc2S(=O)(=O)C2CC2)NC(=O)CCc2cccc(c2)C(Nc2ccc3c(N(C(=O)OC(C)(C)C)C(=O)OC(C)(C)C)ncc(F)c3c2)C1=O (centres unmarked) yielded a ring closure, isolated yield ([1]; from CNCc1cc(NC(=O)CCc2cccc(C(Nc3ccc4c(N(C(=O)OC(C)(C)C)C(=O)OC(C)(C)C)ncc(F)c4c3)C(=O)O)c2)ccc1S(=O)(=O)C1CC1, 14-membered ring, BOP/DMAP/DIPEA, DCM/DMF, 25.0 °C) of 41%.

Work on CN1Cc2cc(ccc2S(=O)(=O)C2CC2)NC(=O)CCc2cccc(c2)C(Nc2ccc3c(N(C(=O)OC(C)(C)C)C(=O)OC(C)(C)C)nccc3c2)C1=O (centres unmarked) yielded a ring closure, isolated yield ([1]; from CNCc1cc(NC(=O)CCc2cccc(C(Nc3ccc4c(N(C(=O)OC(C)(C)C)C(=O)OC(C)(C)C)nccc4c3)C(=O)O)c2)ccc1S(=O)(=O)C1CC1, 14-membered ring, BOP/DMAP/DIPEA, DCM/DMF, 23.3 mM, 25.0 °C, 12.0 h) of 50%.

With COc1c(F)cc2cc1CCC(=O)Nc1ccc(S(=O)(=O)C3CC3)c(c1)CN(C)C(=O)C2Nc1ccc2c(N(C(=O)OC(C)(C)C)C(=O)OC(C)(C)C)ncc(F)c2c1 (centres unmarked) the ring closure, isolated yield ([1]; from CNCc1cc(NC(=O)CCc2cc(C(Nc3ccc4c(N(C(=O)OC(C)(C)C)C(=O)OC(C)(C)C)ncc(F)c4c3)C(=O)O)cc(F)c2OC)ccc1S(=O)(=O)C1CC1, 14-membered ring, BOP/DMAP/DIPEA, DCM/DMF, 25.0 °C) was 18%.

Work on COc1cc2cc(c1)C(Nc1ccc3c(N(C(=O)OC(C)(C)C)C(=O)OC(C)(C)C)ncc(F)c3c1)C(=O)N(C)Cc1cc(ccc1S(=O)(=O)C1CC1)NC(=O)CC2 (centres unmarked) yielded a ring closure, isolated yield ([1]; from CNCc1cc(NC(=O)CCc2cc(OC)cc(C(Nc3ccc4c(N(C(=O)OC(C)(C)C)C(=O)OC(C)(C)C)ncc(F)c4c3)C(=O)O)c2)ccc1S(=O)(=O)C1CC1, 14-membered ring, BOP/DMAP/DIPEA, DCM/DMF, 25.0 °C, 12.0 h) of 69%.

COc1ccc2cc1COCC(=O)Nc1ccc(S(=O)(=O)C3CC3)c(c1)CN(C)C(=O)C2Nc1ccc2c(N(C(=O)OC(C)(C)C)C(=O)OC(C)(C)C)nccc2c1 (centres unmarked) showed a ring closure, isolated yield ([1]; from CNCc1cc(NC(=O)COCc2cc(C(Nc3ccc4c(N(C(=O)OC(C)(C)C)C(=O)OC(C)(C)C)nccc4c3)C(=O)O)ccc2OC)ccc1S(=O)(=O)C1CC1, 15-membered ring, BOP/DMAP/DIPEA, DCM/DMF, 25.0 °C, 12.0 h) of 54%.

For C[C@@H]1CC(=O)Nc2ccc(OC(F)F)c(c2)CN(C)C(=O)C(Nc2ccc(C#N)cc2)c2ccc(OCc3ccccc3)c1c2 (some centres unmarked), the ring closure, isolated yield ([1]; from CNCc1cc(NC(=O)C[C@@H](C)c2cc(C(Nc3ccc(C#N)cc3)C(=O)O)ccc2OCc2ccccc2)ccc1OC(F)F, 14-membered ring, BOP) was 64%.

In the case of C[C@@H]1CC(=O)Nc2ccc(S(=O)(=O)C3CC3)c(c2)CN(C)C(=O)C(Nc2ccc3c(N(C(=O)OC(C)(C)C)C(=O)OC(C)(C)C)ncc(F)c3c2)c2ccc(OCc3ccccc3)c1c2 (some centres unmarked), the ring closure, isolated yield ([1]; from CNCc1cc(NC(=O)C[C@@H](C)c2cc(C(Nc3ccc4c(N(C(=O)OC(C)(C)C)C(=O)OC(C)(C)C)ncc(F)c4c3)C(=O)O)ccc2OCc2ccccc2)ccc1S(=O)(=O)C1CC1, 14-membered ring, BOP) is reported as 19%.

In the case of C[C@H]1CC(=O)Nc2ccc(S(=O)(=O)C3CC3)c(c2)CN(C)C(=O)C(Nc2ccc3c(N(C(=O)OC(C)(C)C)C(=O)OC(C)(C)C)ncc(F)c3c2)c2ccc(OCc3ccccc3)c1c2 (some centres unmarked), the ring closure, isolated yield ([1]; from CNCc1cc(NC(=O)C[C@H](C)c2cc(C(Nc3ccc4c(N(C(=O)OC(C)(C)C)C(=O)OC(C)(C)C)ncc(F)c4c3)C(=O)O)ccc2OCc2ccccc2)ccc1S(=O)(=O)C1CC1, 14-membered ring, BOP/DMAP/DIPEA, DCM/DMF, 25.0 °C) is reported as 24%.

Compound CCCCOc1ccc2cc1CCC(=O)Nc1ccc(S(=O)(=O)C3CC3)c(c1)CN(C)C(=O)[C@@H]2Nc1ccc2c(N)ncc(F)c2c1 [Example 23, (R)-11-(1-Amino-4-fluoro-isoquinolin-6-ylamino)-7-butoxy-16-cyclopropanesulfonyl-13-methyl-2,13-diaza-tricyclo[13.3.1.1^6,10]icosa-1(19),6,8,10(20),15,17-hexaene-3,12-dione trifluroracetic acid salt] has a Ki [2] of 5 nM.

CC(C)COc1ccc2cc1CCC(=O)Nc1ccc(S(=O)(=O)C3CC3)c(c1)CN(C)C(=O)[C@@H]2Nc1ccc2c(N)ncc(F)c2c1 [Example 24, (R)-11-(1-Amino-4-fluoro-isoquinolin-6-ylamino)-16-cyclopropanesulfonyl-7-isobutoxy-13-methyl-2,13-diaza-tricyclo[13.3.1.1^6,10]icosa-1(19),6,8,10(20),15,17-hexaene-3,12-dione trifluroracetic acid salt] showed a Ki [2] of 5 nM.

Compound CN1Cc2cc(ccc2S(=O)(=O)C2CC2)NC(=O)CCc2cc(ccc2OCC2CCC2)[C@@H](Nc2ccc3c(N)ncc(F)c3c2)C1=O [Example 25, (R)-11-(1-Amino-4-fluoro-isoquinolin-6-ylamino)-7-cyclobutylmethoxy-16-cyclopropanesulfonyl-13-methyl-2,13-diaza-tricyclo[13.3.1.1^6,10]icosa-1(19),6,8,10(20),15,17-hexaene-3,12-dione trifluroracetic acid salt] has a Ki [2] of 6 nM.

Compound CC(C)Oc1ccc2cc1CCC(=O)Nc1ccc(S(=O)(=O)C3CC3)c(c1)CN(C)C(=O)[C@@H]2Nc1ccc2c(N)ncc(F)c2c1 [Example 26, (R)-11-(1-Amino-4-fluoro-isoquinolin-6-ylamino)-16-cyclopropanesulfonyl-7-isopropoxy-13-methyl-2,13-diaza-tricyclo[13.3.1.1^6,10]icosa-1(19),6,8,10(20),15,17-hexaene-3,12-dione trifluroracetic acid salt] has a Ki [2] of 5 nM.

Compound CN1Cc2cc(ccc2S(=O)(=O)C2CC2)NC(=O)N(CC2CCC2)CCc2cccc(c2)C(Nc2ccc3c(N)ncc(F)c3c2)C1=O (centres unmarked) [Example 27, 5-(1-Amino-4-fluoro-isoquinolin-6-ylamino)-13-cyclobutylmethyl-19-cyclopropanesulfonyl-3-methyl-3,13,15-triaza-tricyclo[14.3.1.1^6,10]henicosa-1(19),6(21),7,9,16(20),17-hexaene-4,14-dione trifluoroacetic acid salt] has a Ki [2] of 148 nM.

C[C@@H]1CC(=O)Nc2cccc(c2)[C@@H](CC(=O)O)NC(=O)[C@H](Nc2ccc(C(=N)N)cc2)c2ccc(OCC(F)F)c1c2 [Example 44, trifluoroacetic acid salt] gave a Ki [2] of 5 nM.

For “(R)-11-(1-Amino-4-fluoro-isoquinolin-6-ylamino)-16-cyclopropane sulfonyl-7-(2,2-difluoro-ethoxy)-13-methyl-2,13-diaza-tricyclo[13.3.1.1^6,10]icosa-1(18),6,8,10(20),15(19),16-hexaene-3,12-dione trifluoroacetic acid salt [Example 33]”, the Ki [2] was 21 nM.

Compound “(R)-11-(5-Amino-8-fluoro-naphthalen-2-ylamino)-16-cyclopropanesulfonyl-7-cyclopropyl-13-methyl-2,13-diaza-tricyclo[13.3.1.1^6,10]icosa-1(18),6,8,10(20),15(19),16-hexaene-3,12-dione trifluoroacetic acid salt [Example 36]” has a Ki [2] of 5 nM.
